Earlier results, collected in patent publication US8791093B2, “Pharmaceutical delivery systems for treatment of substance abuse and other addictions” (priority 2009, dated 2014).

Key:
ALDH-II = molecular target: T1, ALDH-II (Homo sapiens, UniProt P00352)
T1 sequence (P00352 1-501): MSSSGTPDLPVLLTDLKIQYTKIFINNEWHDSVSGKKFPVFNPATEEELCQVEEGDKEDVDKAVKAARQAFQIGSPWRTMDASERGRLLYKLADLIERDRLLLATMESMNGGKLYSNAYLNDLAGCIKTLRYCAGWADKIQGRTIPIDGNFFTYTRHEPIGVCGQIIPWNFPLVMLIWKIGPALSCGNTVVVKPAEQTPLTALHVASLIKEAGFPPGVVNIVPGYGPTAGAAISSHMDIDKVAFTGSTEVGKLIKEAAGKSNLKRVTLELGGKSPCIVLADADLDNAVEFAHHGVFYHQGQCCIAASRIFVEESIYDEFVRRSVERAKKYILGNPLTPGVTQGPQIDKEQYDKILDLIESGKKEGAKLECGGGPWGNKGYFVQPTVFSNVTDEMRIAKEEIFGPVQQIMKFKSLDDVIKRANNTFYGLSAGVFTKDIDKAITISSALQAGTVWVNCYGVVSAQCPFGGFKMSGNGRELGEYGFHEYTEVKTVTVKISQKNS

ALDH-I = molecular target: T2, ALDH-I (Homo sapiens, UniProt P05091)
T2 sequence (P05091 18-517): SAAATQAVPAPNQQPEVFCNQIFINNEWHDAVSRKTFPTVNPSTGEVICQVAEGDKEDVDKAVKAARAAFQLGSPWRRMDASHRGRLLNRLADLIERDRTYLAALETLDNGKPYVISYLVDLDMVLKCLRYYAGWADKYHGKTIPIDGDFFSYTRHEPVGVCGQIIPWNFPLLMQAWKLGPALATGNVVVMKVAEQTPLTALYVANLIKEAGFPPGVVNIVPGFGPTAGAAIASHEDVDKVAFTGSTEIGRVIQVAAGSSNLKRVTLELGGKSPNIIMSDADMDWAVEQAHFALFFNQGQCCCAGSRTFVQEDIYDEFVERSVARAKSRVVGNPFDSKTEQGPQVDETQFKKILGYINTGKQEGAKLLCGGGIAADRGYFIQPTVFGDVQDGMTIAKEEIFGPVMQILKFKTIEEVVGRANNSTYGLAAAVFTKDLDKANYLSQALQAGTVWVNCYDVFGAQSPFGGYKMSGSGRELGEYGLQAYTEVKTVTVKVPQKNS

SMILES: CCN(CC)C(=S)SSC(=S)N(CC)CC [Disulfiram, diethylcarbamothioylsulfanyl diethylaminomethanedithioate]
- inhibition of ALDH-II (ALDH-II): potent irreversible inhibitor
- inhibition of ALDH-I (ALDH-I): only slightly
